We go through 6 compounds from patent US20240174992A1, “SPLIT MODIFIED DEHALOGENASE VARIANTS” (Promega Corporation, priority 2022, published 2024).

Assay [1] relates to HeLa cells. Nature of the assay: Live cell labeling kinetics of split HaloTag fragments fused to BRD4 and Histone H3, time-lapse imaging. The assay is classed as cell-based. As to conditions: 100 nM JF646, BRD4-HaloTag[3-19] and H3.3-HaloTag[22-297](M2F)-EGFP. The method, then: FIG. 136. Timepoint imaging of complemented BRD4:Histone H3 complexes in live cells after addition of JF646 HaloTag ligand. […] Cells were immediately imaged after the ligand, 100 nM JF646, addition every 15 minutes for 1.5 hour. Imaging data were collected in the Far-red channel (Ex. 637 nm, top panel) and the green channel (Ex. 488 nm, bottom panel).
FIG. 137. Quantitation of live cell labeling kinetics of split HaloTag fragments fused to BRD4 and Histone H3 using time-lapse imaging. Cells were immediately imaged after the ligand addition every 10 minutes for 70 minutes. A Z-stack image was obtained at all time points to ensure all cells were captured in focus. The most focused Z levels were merged into one, and the intensity of all cells (6 total objects) was measured and averaged at all time points. The average of all cells' intensities present in the captured field of view were tracked in the far-red channel and the green channel over this period. […]
To measure the labeling rate, cells were immediately imaged after ligand addition every 10 minutes for 70 minutes (FIG. 137). […] The most focused Z levels were merged into one, and the intensity of all cells (6 total objects) was measured and averaged at all time points. […]

Assay [2] has as its target T1, Calmodulin:M13 interaction (Homo sapiens, UniProt P0DP23).
T1 construct: HaloTag[3-19]; expressed in transfected cells; host or cells: HeLa cells
Nature of the assay: Calmodulin:M13 interaction with split HaloTag, plate assay in live HeLa cells. The assay is classed as cell-based. The method, then:
FIG. 140. Use of split HaloTag in detecting the interaction between Calmodulin and M13 peptide induced by the Calcium ions in live mammalian cells. […] The fluorescence activity was measured at indicated time points. For each construct, four technical replicates were tested. The bar for each construct is the mean of the four replicates, and the error bar represents the standard deviations.
FIG. 141. The fold response of split HaloTag in detecting the interaction between Calmodulin and M13 peptide induced by the Calcium ions in live mammalian cells. The fold response of each assay condition was calculated as the ratio of fluorescence signal for +Calcium chloride divided by −Calcium chloride treated cells (B). For each construct, four technical replicates have been tested. The bar for each construct is the mean of the four replicates, and the error bar represents the standard deviations.

Assay [3] has as its target T1, Calmodulin:M13 interaction. Nature of the assay: Calmodulin:M13 interaction with split HaloTag, live cell imaging in HeLa cells. The class given is cell-based. On the procedure:
FIG. 142. Live cell imaging of split HaloTag function in detecting the interaction between Calmodulin protein with the M13 peptide induced upon the addition of Ca ions in live mammalian cells. […] Prior to imaging by confocal microscopy, cells were labeled with 100 nM JF646 HaloTag ligand for 30 minutes at 37° C. The imaging data were collected in the far-red channel (Ex. 637 nm) and the green channel (Ex. 488 nm).
FIG. 143. Background measurement of HaloTag[22-297](M2F) fused to M13 peptide in live mammalian cells at lower laser intensity To measure the background originating from labeling the HaloTag [22-297](M2F) fragment, cells were transfected with just the M13-HaloTag[22-297](M2F)-EGFP plasmid and imaged using the same microscope settings. The Imaging data were collected in the far-red channel (Ex. 637 nm) and the green channel (Ex. 488 nm).
FIG. 144. Quantitation of live cell imaging of split HaloTag function in detecting the Calmodulin and M13 peptide interaction in live mammalian cells. Comparison of the fluorescent intensity of all imaged cells across several fields of view in the presence or absence of Calcium chloride (6 mM) conditions compared against the background fluorescent intensity of the labeled non-complemented HaloTag[22-297](M2F) fragment alone. Each dot represents the intensity of an imaged cell. CellProfiler software is used for this analysis.

The test system of assay [4] is HeLa cells. Nature of the assay: Split HaloTag FRB/FKBP plate-based fluorescent assay in live HeLa cells. The class given is cell-based. As to conditions: for performance of small HaloTag fragment: live HeLa cells, 500 nM Rapamycin, 50 nM JF646. The method, then:
FIG. 27A-B. Activity of split HaloTag combinations in live mammalian cells. HeLa cells transiently transfected with plasmids expressing the large HaloTag fragments fused to FRB and small HaloTag fragments fused to FKBP were incubated for 2 hours with 500 nM Rapamycin, followed by labeling with 50 nM JF646 HaloTag ligand prior to detection of fluorescence at indicated timepoints. FIG. 27A Fluorescence intensity of JF646 HaloTag ligand in live cell assays over time comparing cells treated or untreated with Rapamycin. FIG. 27B Fold response of each assay condition was calculated as the ratio of fluorescence signal for +Rapamycin/−Rapamycin treated cells.
FIG. 90. The activity of different small HaloTag fragments in live mammalian cells. HeLa cells transiently transfected with plasmids expressing the large HaloTag fragment fused to FRB and small HaloTag fragments fused to FKBP were incubated for 2 hours with 500 nM Rapamycin, followed by labeling with 50 nM JF646 HaloTag ligand prior to detection of fluorescence activity at indicated time points. Fluorescence intensity of JF646 HaloTag ligand in live cell assays over time comparing cells treated or untreated with Rapamycin.
FIG. 91. Fold response of different small HaloTag fragments in live mammalian cells. HeLa cells transiently transfected with plasmids expressing the large HaloTag fragment fused to FRB and small HaloTag fragments fused to FKBP were incubated for 2 hours with 500 nM Rapamycin, followed by labeling with 50 nM JF646 HaloTag ligand prior to detection of fluorescence activity at indicated time points. The fold response of each assay condition was calculated as the ratio of fluorescence signal for +Rapamycin/−Rapamycin treated cells.
FIG. 93. Activity comparison of HaloTag[22-297] variants in a protein complementation assay in live mammalian cells. HeLa cells transiently transfected with plasmids expressing the large HaloTag fragment fused to FRB and small HaloTag fragments fused to FKBP were incubated for 2 hours with 500 nM Rapamycin, followed by labeling with 50 nM JF646 HaloTag ligand prior to detection of fluorescence activity at indicated time points. Fluorescence intensity of JF646 HaloTag ligand in live cell assays over time comparing cells treated or untreated with Rapamycin.
FIG. 94. […] HeLa cells transiently transfected with plasmids expressing the large HaloTag fragment fused to FRB and small HaloTag fragments fused to FKBP were incubated for 2 hours with 500 nM Rapamycin, followed by labeling with 50 nM JF646 HaloTag ligand prior to detection of fluorescence activity at indicated time points. The fold response of each assay condition was calculated as the ratio of fluorescence signal for +Rapamycin/− Rapamycin treated cells. […]

A short description of assay [5]: Complementation of N-terminal split HaloTag constructs in E. coli lysates, Janelia Fluor ligand fluorescence. As to conditions: FKBP fusion against HT(23-297)-FRB, 500 nM Rapamycin, JF646. The assay is classed as biochemical. The method, then:
FIG. 21A-B. Comparison of complementation activity of N-terminal split HaloTag constructs. Each HaloTag fragment was expressed separately in E. coli and then combined after lysis. The smaller N-terminal HaloTag fragments as FKBP fusions were tested against the larger fragments of FIG. 21A HT(23-297)-FRB or FIG. 21B HT(22-297)-FRB. To each reaction, 500 nM Rapamycin was added and incubated at room temperature for 2.5 hours prior to addition of 50 nM JF646 ligand and measurement of fluorescence at the indicated timepoint.
FIG. 22. Comparison of truncations of N-terminal split HaloTag constructs. Each HaloTag fragment was expressed separately in E. coli and then combined after lysis. […] To each reaction, 500 nM Rapamycin was added and incubated at room temperature for 2 hours prior to addition of 50 nM JF646 ligand and measurement of fluorescence at the indicated timepoint.
FIG. 25A-B. Mutations in N-terminal split HaloTag fragments improve fluorescence intensity and fold response. […] To each reaction, 500 nM Rapamycin was added and incubated at room temperature for 2 hours prior to addition of 50 nM JF646 ligand and measurement of fluorescence at the indicated timepoint. FIG. 25A Fluorescence intensity is shown for +Rapamycin condition to show the overall system brightness relative to FIG. 25B Fold response following Rapamycin addition. […]

Turning to `C[Si]1(C)c2cc(N3CCC3)ccc2C2(OC(=O)c3ccc(C(=O)NCCOCCOCCCCCCCl)cc32)c2ccc(N3CCC3)cc21` [JF646], the “time for far-red channel signal to reach its maximum” value with HeLa cells [1] is on record as “about 40 minutes”.

For `[Ca+2].[Cl-].[Cl-]` [calcium, Calcium chloride], in assay [2], the “change in fluorescence of split HaloTag fused to Calmodulin and M13 peptide” value is “modest, calcium-dependent increase in fluorescence”. Moreover, the “change in fluorescence from split HaloTag complementation” value in assay [3] (6 mM Calcium chloride, microscopy) is on record as “significant increase in fluorescence”. The “increase in median fluorescence” value in assay [3] (across all cell images, Calcium chloride 6 mM) was 7 ×.

As for “HT(4-19): small HaloTag fragment, residues 4-19, FKBP fusion”, the “performance of small HaloTag fragment” value in the assay on HeLa cells [4] is “good fluorescence intensities and high fold responses”.

Regarding “HT(8-19): truncated small N-terminal HaloTag fragment, residues 8-19, FKBP fusion”, in assay [5], the “complementation activity of truncated small fragment” value is “Complementation activity was demonstrated”.

“HaloTag[1-30]: small HaloTag fragment, residues 1-30, FKBP fusion”: the “performance of small HaloTag fragment” value in the assay on HeLa cells [4] is recorded as “best SmHT in this assay”. The background complementation result with HeLa cells [4] (no Rapamycin) was “higher background (no Rapamycin) complementation”.

Consider “HaloTag[3-19]: small HaloTag fragment, residues 3-19 of the HALOTAG sequence; used as fusion or synthetic peptide (EIGTGFPFDPHYVEVLG)”, for which the “performance of small HaloTag fragment” value in the assay with HeLa cells [4] was “good fluorescence intensities and high fold responses”.
